{"source": "the METLIN SMRT retention time set (Domingo-Almenara et al. 2019)", "experiment": "gradient 5% acetonitrile 3 min, to 50% in 2 min, to 85% in 15 min, held 3 min, 100 µL/min", "settings": "column: Zorbax Extend-C18 2.1 x 50 mm; eluents: water / acetonitrile, 0.1% formic acid", "summary_of_the_method": "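In both positive and negative ionization mode, a quadrupole time-of-flight mass spectrometer coupled to HPLC analyzed pure standards run in mixtures of ~100 molecules. The Zorbax Extend-C18 column (2.1 × 50 mm, 1.8 μm) was operated at 100 μL/min with water and acetonitrile, each containing 0.1% formic acid. The dead volume was 40 μL and the dwell volume 900 μL. Retention time came from adduct peaks that were computationally picked and individually inspected by hand.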", "data": [{"smiles": "O=C(NCC1CN(CC2CC2)CC12CCCCC2)Nc1cccc(Cl)c1", "note": "(stereo not given)", "values": [{"measurement": "RP-LC retention time", "value": 741, "unit": "s"}]}, {"smiles": "CCCNC(=O)C1CCCN(c2nc3ncn(CC(=O)Nc4ccccc4OCC)c(=O)c3s2)C1", "note": "(stereo not given)", "values": [{"measurement": "RP-LC retention time", "value": 742, "unit": "s"}]}, {"smiles": "Cc1cc(C)cc(NC(=O)c2cn(C)nc2S(=O)(=O)N2CCSCC2)c1", "values": [{"measurement": "RP-LC retention time", "value": 1010, "unit": "s"}]}, {"smiles": "CN(C)c1ccc(-c2nc3ncccn3c2NCc2ccccc2)cc1", "values": [{"measurement": "RP-LC retention time", "value": 726, "unit": "s"}]}, {"smiles": "Cc1nn(C)cc1S(=O)(=O)Nc1c(C)n(C)n(-c2ccccc2)c1=O", "values": [{"measurement": "RP-LC retention time", "value": 722, "unit": "s"}]}, {"smiles": "Cc1ccc(Oc2nccn3c(=O)n(CC(=O)NC(C)CCc4ccccc4)nc23)cc1", "note": "(stereo not given)", "values": [{"measurement": "RP-LC retention time", "value": 1080, "unit": "s"}]}, {"smiles": "O=C(CSc1nccn1-c1cccc(Cl)c1)Nc1ccccc1F", "values": [{"measurement": "RP-LC retention time", "value": 841, "unit": "s"}]}, {"smiles": "Cc1cccc(NC(=O)N2CCN(Cc3cn(C)c4ccccc34)CC2)c1", "values": [{"measurement": "RP-LC retention time", "value": 681, "unit": "s"}]}, {"smiles": "COc1ccc(NC(=O)C2c3cc(OC)c(OC)cc3C(=O)N(C)C2c2cccs2)c(OC)c1", "note": "(stereo not given)", "values": [{"measurement": "RP-LC retention time", "value": 846, "unit": "s"}]}, {"smiles": "Cc1nn2c(CNS(=O)(=O)c3ccc(Cl)cc3C)c(-c3ccccc3)nc2s1", "values": [{"measurement": "RP-LC retention time", "value": 973, "unit": "s"}]}, {"smiles": "CCN1C(=O)c2cccnc2Sc2cc(NC(=O)c3ccc(Cl)cc3OC)ccc21", "values": [{"measurement": "RP-LC retention time", "value": 804, "unit": "s"}]}, {"smiles": "O=C([C@@H]1C[C@H](F)CN1C(=O)c1ccc(F)cc1)N1CCCCC1", "values": [{"measurement": "RP-LC retention time", "value": 684, "unit": "s"}]}, {"smiles": "COc1ccc(NC(=O)Cn2nc3cc(-c4ccccc4)nc(C)n3c2=O)cc1F", "values": [{"measurement": "RP-LC retention time", "value": 914, "unit": "s"}]}, {"smiles": "O=C(c1cnccn1)N1CCCC1c1nc(-c2cccc(C(F)(F)F)c2)no1", "note": "(stereo not given)", "values": [{"measurement": "RP-LC retention time", "value": 798, "unit": "s"}]}, {"smiles": "C=CCN1C(=O)C(C)(C)COc2cc(NS(=O)(=O)C3CCCCC3)ccc21", "values": [{"measurement": "RP-LC retention time", "value": 932, "unit": "s"}]}, {"smiles": "CCOc1ccc(-c2cc3n(n2)CCCN(C(=O)c2cc(C)n(C)n2)C3)cc1", "values": [{"measurement": "RP-LC retention time", "value": 698, "unit": "s"}]}, {"smiles": "CN1C(=O)COc2ccc(-c3csc(NC(=O)c4ccc(F)cc4)n3)cc21", "values": [{"measurement": "RP-LC retention time", "value": 952, "unit": "s"}]}, {"smiles": "Cc1ccc(CC(=O)Nc2cc(-c3cccs3)no2)cc1", "values": [{"measurement": "RP-LC retention time", "value": 993, "unit": "s"}]}, {"smiles": "O=C(Cn1cc(Cl)cn1)N1CCCC1c1cccc(F)c1", "note": "(stereo not given)", "values": [{"measurement": "RP-LC retention time", "value": 836, "unit": "s"}]}, {"smiles": "COc1ccc(CNC(=O)NCC(c2ccccc2Cl)N(C)C)cc1", "note": "(stereo not given)", "values": [{"measurement": "RP-LC retention time", "value": 577, "unit": "s"}]}, {"smiles": "Cc1ccc(-n2ccc(=O)c(-c3nc(-c4ccccc4C)no3)n2)cc1", "values": [{"measurement": "RP-LC retention time", "value": 987, "unit": "s"}]}, {"smiles": "CC(C)C(=O)Nc1cccnc1", "values": [{"measurement": "RP-LC retention time", "value": 583, "unit": "s"}]}, {"smiles": "Cc1ccc(-c2nnc(SCc3noc(CCC(=O)Nc4ccc(F)c(Cl)c4)n3)o2)cc1", "values": [{"measurement": "RP-LC retention time", "value": 1020, "unit": "s"}]}, {"smiles": "CN1c2cc(F)ccc2C(=O)NC12CCN(C(=O)Cc1cccc(F)c1)CC2", "values": [{"measurement": "RP-LC retention time", "value": 752, "unit": "s"}]}, {"smiles": "O=C(CCn1nnc2cc(-c3noc(-c4ccc(F)cc4)n3)ccc21)N1CCOCC1", "values": [{"measurement": "RP-LC retention time", "value": 849, "unit": "s"}]}, {"smiles": "COc1ccc(C2CC(=O)N(c3ccc(F)cc3)C(=O)C2)cc1OC", "values": [{"measurement": "RP-LC retention time", "value": 801, "unit": "s"}]}, {"smiles": "COc1ccccc1NC(=O)N1CCC2(CC1)N=C(c1cccc(F)c1)C(=O)N2", "values": [{"measurement": "RP-LC retention time", "value": 840, "unit": "s"}]}, {"smiles": "COc1ccc(C(=O)Nc2nc(-c3ccc4c(c3)N(C)C(=O)CO4)c(C)s2)cc1", "values": [{"measurement": "RP-LC retention time", "value": 967, "unit": "s"}]}, {"smiles": "CCCNC(=O)C1CCN(Cc2cc3ccccc3n2Cc2ccccc2)CC1", "values": [{"measurement": "RP-LC retention time", "value": 704, "unit": "s"}]}, {"smiles": "O=C(NCCc1cccs1)C1CCc2nc(N3CCCC3)ncc2C1", "note": "(stereo not given)", "values": [{"measurement": "RP-LC retention time", "value": 857, "unit": "s"}]}, {"smiles": "CCc1nc2ccccc2c(=O)n1Cc1noc(C2CC(=O)N(c3ccccc3)C2)n1", "note": "(stereo not given)", "values": [{"measurement": "RP-LC retention time", "value": 823, "unit": "s"}]}, {"smiles": "CC(C)NC(=O)c1ccc2c(c1)nc(CN(C)C(=O)NCc1ccco1)n2C", "values": [{"measurement": "RP-LC retention time", "value": 602, "unit": "s"}]}, {"smiles": "Cc1nn(-c2nc(-c3ccc(Cl)cc3)cs2)c(C)c1CC(=O)NC(C)C", "values": [{"measurement": "RP-LC retention time", "value": 1080, "unit": "s"}]}, {"smiles": "CCN1CCN(CCNC(=O)c2cc3n(n2)CCCN(Cc2ccc(C)cc2)C3=O)CC1", "values": [{"measurement": "RP-LC retention time", "value": 614, "unit": "s"}]}, {"smiles": "COc1ccc(CCNC(=O)C2CC(=O)N(c3n[nH]c4ccccc34)C2)cc1OC", "note": "(stereo not given)", "values": [{"measurement": "RP-LC retention time", "value": 657, "unit": "s"}]}, {"smiles": "O=C(C1CC=CC1)N1CCC2(CC1)NCCc1c2[nH]c2ccccc12", "values": [{"measurement": "RP-LC retention time", "value": 643, "unit": "s"}]}, {"smiles": "CSc1nnc(-c2nn(C)c3c2CN(C(=O)c2ccc(Br)cc2)CC3)n1C", "values": [{"measurement": "RP-LC retention time", "value": 753, "unit": "s"}]}, {"smiles": "O=C(c1ccn[nH]1)N1CCCC(Cn2c(C3CC3)nc3cccnc32)C1", "note": "(stereo not given)", "values": [{"measurement": "RP-LC retention time", "value": 578, "unit": "s"}]}, {"smiles": "CCC1Oc2ccc(S(=O)(=O)N3CCC(C(=O)N4CCCCCC4)CC3)cc2NC1=O", "note": "(stereo not given)", "values": [{"measurement": "RP-LC retention time", "value": 842, "unit": "s"}]}, {"smiles": "CCNC(=O)C1CCN(C(=O)Nc2ccc(NC(=O)Nc3ccccc3)cc2)CC1", "values": [{"measurement": "RP-LC retention time", "value": 658, "unit": "s"}]}, {"smiles": "Brc1cccc(-c2noc(CSc3nccn3-c3ccccc3)n2)c1", "values": [{"measurement": "RP-LC retention time", "value": 1020, "unit": "s"}]}, {"smiles": "CCOC(=O)C1CCCN(Cc2cn3cc(F)ccc3n2)C1", "note": "(stereo not given)", "values": [{"measurement": "RP-LC retention time", "value": 559, "unit": "s"}]}, {"smiles": "Cc1ccc(-n2nc3c(=O)n(CCCC(=O)NC4CCCC4)nc(C)c3c2C)cc1", "values": [{"measurement": "RP-LC retention time", "value": 797, "unit": "s"}]}, {"smiles": "COc1cc(-c2nc3ncccn3c2Nc2c(C)cccc2C)ccc1O", "values": [{"measurement": "RP-LC retention time", "value": 683, "unit": "s"}]}, {"smiles": "O=C(CCc1c[nH]c2ccccc12)N1CCCN(C2CCN(CC3CC3)C2=O)CC1", "note": "(stereo not given)", "values": [{"measurement": "RP-LC retention time", "value": 570, "unit": "s"}]}, {"smiles": "Cc1ccsc1C(=O)N1C[C@@H](F)C[C@H]1C(=O)N1CCCCC1", "values": [{"measurement": "RP-LC retention time", "value": 695, "unit": "s"}]}, {"smiles": "CC(C)CCOc1cccc(OCC(=O)NCC(=O)O)c1", "values": [{"measurement": "RP-LC retention time", "value": 772, "unit": "s"}]}, {"smiles": "O=c1ccc(-c2ccc(F)cc2)nn1CCc1nc(-c2ccccc2Cl)no1", "values": [{"measurement": "RP-LC retention time", "value": 1020, "unit": "s"}]}, {"smiles": "CC(C)NC(=O)c1ccc(-c2nc3cc(NS(=O)(=O)c4ccc(F)c(F)c4)ccc3n2C)cc1", "values": [{"measurement": "RP-LC retention time", "value": 721, "unit": "s"}]}, {"smiles": "CCN1C(=O)CCc2cc(NS(=O)(=O)c3ccc(F)c(C)c3)ccc21", "values": [{"measurement": "RP-LC retention time", "value": 834, "unit": "s"}]}, {"smiles": "COc1cc(-c2noc(-c3nc(-c4ccc(C)cc4)no3)n2)cc(OC)c1OC", "values": [{"measurement": "RP-LC retention time", "value": 1260, "unit": "s"}]}, {"smiles": "Fc1ccccc1-c1nnc(CN2CCN(c3ccccn3)CC2)o1", "values": [{"measurement": "RP-LC retention time", "value": 596, "unit": "s"}]}, {"smiles": "CC1=C(c2ccccc2)S(=O)(=O)N=C1N1CCC(NC(=O)COc2ccccc2)CC1", "values": [{"measurement": "RP-LC retention time", "value": 841, "unit": "s"}]}, {"smiles": "Cc1ccccc1NC(=O)N1C[C@@H]2CN(S(=O)(=O)c3ccc(F)cc3)C[C@H](C1)O2", "values": [{"measurement": "RP-LC retention time", "value": 786, "unit": "s"}]}, {"smiles": "c1csc(Cc2nc(-c3ccc4c(c3)ncn4CCN3CCCCC3)no2)c1", "values": [{"measurement": "RP-LC retention time", "value": 646, "unit": "s"}]}, {"smiles": "CCOC(=O)N1CCN(C(=O)C2CCC(CNS(=O)(=O)CC)CC2)CC1", "note": "(stereo not given)", "values": [{"measurement": "RP-LC retention time", "value": 631, "unit": "s"}]}, {"smiles": "CCOC(=O)c1cccc(NC(=O)CSc2ccc(N3CCCC(C(=O)NC4CC4)C3)nn2)c1", "note": "(stereo not given)", "values": [{"measurement": "RP-LC retention time", "value": 680, "unit": "s"}]}, {"smiles": "O=C(Nc1c(-c2ccccc2)nc2ccc(Cl)cn12)c1ccc(F)cc1", "values": [{"measurement": "RP-LC retention time", "value": 750, "unit": "s"}]}, {"smiles": "CN1CCN(S(=O)(=O)c2ccc(Cl)c3ccccc23)CC1", "values": [{"measurement": "RP-LC retention time", "value": 580, "unit": "s"}]}, {"smiles": "Cc1ccc(C)c(N2CCN(C(=O)c3nc4cccnc4n(C)c3=O)CC2)c1", "values": [{"measurement": "RP-LC retention time", "value": 653, "unit": "s"}]}, {"smiles": "Cc1nc(Nc2ccc(F)cn2)sc1C(=O)NCCc1ccc(Cl)cc1", "values": [{"measurement": "RP-LC retention time", "value": 936, "unit": "s"}]}, {"smiles": "O=C1N(c2cccc(F)c2)c2ncccc2S(=O)(=O)N1Cc1ccccc1F", "values": [{"measurement": "RP-LC retention time", "value": 1020, "unit": "s"}]}, {"smiles": "COc1cc([C@@H]2c3cc4c(cc3[C@H](O)[C@@H](CO)[C@@H]2C(=O)NCc2ccc(F)cc2)OCO4)cc(OC)c1OC", "values": [{"measurement": "RP-LC retention time", "value": 720, "unit": "s"}]}, {"smiles": "Cc1cc(Cl)ccc1N1C(=O)CN(S(C)(=O)=O)CC1(C)C(=O)NCc1ccc(F)cc1", "note": "(stereo not given)", "values": [{"measurement": "RP-LC retention time", "value": 888, "unit": "s"}]}, {"smiles": "COc1ccccc1CNC(=O)Cn1c(N2CCOCC2)nc(C)cc1=O", "values": [{"measurement": "RP-LC retention time", "value": 654, "unit": "s"}]}]}
